Article PMC3485666 (British Journal of Pharmacology, 2012)

Assays:
S1P1 receptors = conditions: ref Piali et al., 2011; cited from earlier work
[1] = target: myc-tagged human S1P1 receptors (Homo sapiens, UniProt P21453); test: Agonist-mediated internalization of S1P1 receptors in CHO cells by flow cytometry; type: cell-based; conditions: 1 µM, mean ± SD
[2] = target: GIRK channels in human atrial myocytes (Homo sapiens, UniProt P21453); test: Electrophysiological recordings of GIRK current in human atrial myocytes; type: cell-based; conditions: S1P versus BAF312
GIRK channels in human atrial myocytes, sequence (P21453 whole entry): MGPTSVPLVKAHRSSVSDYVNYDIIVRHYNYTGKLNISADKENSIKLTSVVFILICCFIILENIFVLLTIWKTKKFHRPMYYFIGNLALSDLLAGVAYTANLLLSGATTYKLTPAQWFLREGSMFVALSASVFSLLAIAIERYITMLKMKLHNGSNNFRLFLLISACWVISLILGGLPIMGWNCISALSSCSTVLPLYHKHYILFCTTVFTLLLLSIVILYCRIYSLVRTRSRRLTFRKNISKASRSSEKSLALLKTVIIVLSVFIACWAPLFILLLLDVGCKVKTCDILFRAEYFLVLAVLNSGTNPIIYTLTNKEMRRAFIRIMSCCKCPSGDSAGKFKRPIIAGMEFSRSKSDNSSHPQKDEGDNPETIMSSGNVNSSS
GIRK channels in human atrial myocytes, sequence (P48549 whole entry partner): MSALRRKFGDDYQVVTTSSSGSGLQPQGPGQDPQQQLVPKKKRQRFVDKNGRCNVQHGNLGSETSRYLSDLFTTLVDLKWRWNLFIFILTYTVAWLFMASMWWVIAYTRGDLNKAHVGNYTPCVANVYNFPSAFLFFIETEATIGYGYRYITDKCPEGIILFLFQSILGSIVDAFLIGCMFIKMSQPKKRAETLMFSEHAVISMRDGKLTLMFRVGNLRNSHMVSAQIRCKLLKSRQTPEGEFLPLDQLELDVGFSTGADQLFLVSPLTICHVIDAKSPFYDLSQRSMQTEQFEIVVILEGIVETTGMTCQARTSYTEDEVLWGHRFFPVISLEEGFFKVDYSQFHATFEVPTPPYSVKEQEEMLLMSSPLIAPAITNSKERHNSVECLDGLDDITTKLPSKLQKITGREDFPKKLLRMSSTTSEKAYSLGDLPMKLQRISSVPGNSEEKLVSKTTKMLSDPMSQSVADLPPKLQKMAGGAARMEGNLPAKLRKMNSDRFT
GIRK channels in human atrial myocytes, sequence (P48544 whole entry partner): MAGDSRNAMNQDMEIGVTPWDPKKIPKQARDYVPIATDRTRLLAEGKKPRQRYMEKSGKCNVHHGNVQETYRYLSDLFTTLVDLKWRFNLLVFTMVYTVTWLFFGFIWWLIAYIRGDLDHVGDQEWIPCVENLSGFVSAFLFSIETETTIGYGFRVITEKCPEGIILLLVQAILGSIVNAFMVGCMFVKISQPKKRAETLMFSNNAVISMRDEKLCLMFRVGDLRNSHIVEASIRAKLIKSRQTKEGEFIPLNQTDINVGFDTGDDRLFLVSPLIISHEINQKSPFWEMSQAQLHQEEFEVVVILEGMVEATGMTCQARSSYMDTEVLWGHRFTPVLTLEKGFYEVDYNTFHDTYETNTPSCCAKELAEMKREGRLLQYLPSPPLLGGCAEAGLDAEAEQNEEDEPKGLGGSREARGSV

myc-tagged human S1P1 receptors, sequence (P21453 whole entry): as the sequence (P21453 whole entry) above

Compound | Selectivity of S1P1 versus S1P3 (full agonist) (S1P1 receptors) | Selectivity of S1P1 versus S1P5 (partial agonist) (S1P1 receptors) | S1P1 receptors localized intracellularly ([1]; 1 h incubation followed by 3 h without compound) | Internalization of S1P1 receptors ([1]; 1 h incubation) | Potency in activating GIRK current relative to BAF312 [2]
CCC/N=C1\S/C(=C\c2ccc(OC[C@H](O)CO)c(Cl)c2)C(=O)N1c1ccccc1C [ponesimod] | 20 fold | 10 fold | – | – | –
CCCCCCCCCCCCC/C=C/[C@@H](O)[C@@H](N)COP(=O)(O)O [S1P, sphingosine 1-phosphate, reference compound] | – | – | 9 ± 9% | 48 ± 12% | approximately 8 times
